Measurements published in patent publication EP0108452A1, “Treatment of gastric inflammatory disease with cytoprotective prostaglandins and histamine-2 blocking anti-secretory agents” (THE PROCTER & GAMBLE COMPANY, priority 1982, dated 1984).

Tested on: Male Sprague-Dawley rats
Test: Cysteamine duodenal ulcer model (cysteamine gastric ulcer model)
Format: in vivo
Settings: PG-V 5 mg/kg; for % of Cntrl.: damage grading score relative to veh. cntrl.; for % of Cntrl. / % of Redc'n.: oral x3; for Damage Grading Score: oral, x3 at 0, 4 and 8 hours after cysteamine 500 mg/kg s.c., lower score = greater protection; for % of Redc'n.: reduction of damage grading score vs veh. cntrl.
Method: Male Sprague-Dawley rats weighing between 180 and 230 g are fasted for 24 hours during which time they are given ad libitum access to tap water. At the end of the 24 hour fast period, 500 mg/kg of cysteamine is administered subcutaneously. At the same time, the drug or control treatment is begun. The drug or control treatment consists of administering the drug or vehicle/control at 24 hours, 28 hours, and 32 hours after the fast has begun. That is, the drug, or vehicle/control treatment is administered at 0, 4 and 8 hours after the cysteamine. 48 hours after the fasting has begun, 24 hours after the administration of cysteamine, the rats are anesthetized and sacrificed. After sacrifice, the abdominal cavity is opened, and the stomach and approximately 2 inches of duodenum are excised and removed from the rat. They are placed on a 4" x 4" labelled index card. Care must be taken not to disturb the duodenum as this could affect the grading. The stomach and duodenum are cut open along the greater curvature and longitudinally along the anti-mesenteric side, respectively. The duodenum is carefully spread out without altering the orientation of the lesions and the thickness of the mucosa. They are viewed through a stereo microscope at approximately 7x magnification for gross examination of the stomach, pylorus and duodenal surface. For each duodenum, the amount of erythema, the amount of edema, a total lesion area and the severity of the lesions are evaluated according to the grading scale in Table 1. This is also repeated for the stomach. This information is recorded. The lower the score, the greater the protection. The lowest score which an agent can achieve in this model is the maximal intrinsic activity for this agent in this model. The smallest dosage of this agent which achieves this lowest score is the lowest dosage or level of administration which yields maximal intrinsic activity for this agent. [table] In Examples I-VIII, all were conducted in accordance with the cysteamine gastric ulcer model described above. The vehicle was 0.75% polyoxyethylene (20) sorbitan mono-oleate (Tween 80). All dosages were at a rate of 2.5 ml/kg. The treatment compositions were orally dosed at a volume of 2.5 mllkg, in accordance with the model, at 24, 28 and 32 hours after the beginning of the fast, or 0, 4 and 8 hours after the subcutaneous administration of cysteamine. In preparing the prostaglandin + […] compositions, the selected amount of prostaglandin and selected amount of cimetidine were added to a volume which was equivalent to 2.5 ml/kg for each animal. This was then given to the animal at 24, 28 and 32 hours respectively, after the beginning of the fast. The damage grading score was in accordance with the table provided in the cysteamine gastric ulcer model.

[1] = Example I, Cimetidine 25 mg/kg, veh. cntrl. 9.0 ± 2.2
[2] = Example II, Cimetidine 25 mg/kg
[3] = Example II, Cimetidine 25 mg/kg, veh. cntrl. 15.5 ± 4.5
[4] = Example III, Cimetidine 50 mg/kg
[5] = Example III, Cimetidine 50 mg/kg, veh. cntrl. 18.3 ± 3.7

SMILES	% of Cntrl. (Example I, Cimetidine 25 mg/kg)	Damage Grading Score [1]	% of Redc'n. (Example I, Cimetidine 25 mg/kg)	% of Cntrl. [2]	Damage Grading Score [3]	% of Redc'n. [2]	% of Cntrl. [4]	Damage Grading Score [5]	% of Redc'n. [4]
CN/C(=N/CCSCc1nc[nH]c1C)NC#N [Cimetidine]	133%	12.0 ± 2.0	-33%	159%	24.6 ± 1.3	-59%	61%	11.1 ± 3.0	39%
CCCCCC(=O)C#C[C@H]1CCC(=O)[C@@H]1OCCCCCC(=O)O [PG-V, 9,15 dioxo-7-oxa-prost-13,14-ynoic acid]	140%	12.6 ± 2.6	-40%	106%	16.4 ± 3.3	-6%	117%	21.5 ± 4.6	-17%
